Laboratory results reported in publication PMC5975062 (Alzheimer's & Dementia : Translational Research & Clinical …, 2015).
Entries after “also recorded” stand apart in the source; their conditions may differ.

Legend:
[1] = target: QC activity in CSF (Homo sapiens, UniProt Q16769); details: after single and multiple doses
[2] = Phase 1 CSF pharmacokinetics; format: in vivo, human; details: for concentration at 12 h: Min (C 12 h)
[3] = 50 mg bid solution, fasted, nonelderly, day 11, geo mean (CV%)

QC activity in CSF, sequence (Q16769 29-361): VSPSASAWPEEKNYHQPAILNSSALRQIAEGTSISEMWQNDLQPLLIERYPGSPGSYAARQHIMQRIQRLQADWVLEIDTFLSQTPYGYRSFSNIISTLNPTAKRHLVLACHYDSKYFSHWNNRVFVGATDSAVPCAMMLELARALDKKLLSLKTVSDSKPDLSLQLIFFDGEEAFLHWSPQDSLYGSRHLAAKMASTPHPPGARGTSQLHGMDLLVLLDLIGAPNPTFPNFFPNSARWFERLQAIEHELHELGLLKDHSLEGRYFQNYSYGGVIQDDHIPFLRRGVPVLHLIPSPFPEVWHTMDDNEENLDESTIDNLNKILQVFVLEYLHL

CSF AUC(0–12 h) ([2]; 20 mg bid solution, fasted, nonelderly, day 11, estimated as plasma AUC × 0.05): 6 ng·h/mL
CSF concentration, Max (C 3 h) ([2]; 20 mg bid solution, fasted, nonelderly, day 11, estimated, mean × 1.6): 0.8 ng/mL
CSF AUC(0–12 h) [2, 3]: 17.3 (34.8) ng.h/mL
CSF concentration, Max (C 3 h) [2, 3]: 2.32 (34.5) ng/mL
CSF AUC(0–12 h) ([2]; 100 mg bid solution, fed, nonelderly, day 11, geo mean (CV%)): 44.7 (27.2) ng.h/mL
CSF AUC(0–12 h) ([2]; 200 mg bid capsule, fasted, elderly, day 7, estimated as plasma AUC × 0.05): 195 ng·h/mL
CSF concentration, Max (C 3 h) ([2]; 200 mg bid capsule, fasted, elderly, day 7, estimated, mean × 1.6): 25.9 ng/mL
CSF AUC(0–12 h) ([2]; 200 mg bid solution, fasted, nonelderly, day 11, estimated as plasma AUC × 0.05): 91.7 ng·h/mL
CSF concentration, Max (C 3 h) ([2]; 300 mg bid capsule, fasted, elderly, day 7, estimated, mean × 1.6): 37.7 ng/mL
CSF AUC(0–12 h) ([2]; 300 mg bid capsule, fasted, elderly, day 7, geo mean (CV%)): 275 (40.7) ng.h/mL
CSF AUC(0–12 h) ([2]; 400 mg bid capsule, fasted, nonelderly, day 11, geo mean (CV%)): 236 (25.0) ng.h/mL
CSF concentration, Max (C 3 h) ([2]; 500 mg bid capsule, fed, nonelderly, day 11, estimated, mean × 1.6): 62.0 ng/mL
CSF concentration, Max (C 3 h) ([2]; 500 mg bid tablet, fasted, elderly, day 11, estimated, mean × 1.6): 79.0 ng/mL
CSF AUC(0–12 h) ([2]; 500 mg bid tablet, fasted, elderly, day 11, geo mean (CV%)): 530 (36.6) ng.h/mL
CSF AUC(0–12 h) ([2]; 800 mg bid tablet, fasted, elderly, day 11, estimated as plasma AUC × 0.05): 1230 ng·h/mL
CSF concentration, Max (C 3 h) ([2]; 800 mg bid tablet, fasted, elderly, day 11, estimated, mean × 1.6): 163.7 ng/mL
concentration at 3 h ([2]; human, CSF, oral, 100 mg, CSF concentration, Max (C 3 h), 100 mg bid solution, fed, nonelderly, day 11, geo mean (CV%)): 6.02 ng/mL
concentration at 12 h ([2]; human, CSF, oral, 100 mg, CSF concentration, 100 mg bid solution, fed, nonelderly, day 11, geo mean (CV%)): 1.92 ng/mL
half-life ([2]; human, CSF, oral, 100 mg, CSF t1/2, 100 mg bid solution, fed, nonelderly, day 11, geo mean (CV%)): 6.38 h
concentration at 12 h ([2]; human, CSF, oral, 200 mg, CSF concentration, 200 mg bid capsule, fasted, elderly, day 7, estimated, mean × 0.53): 8.6 ng/mL
concentration at 12 h ([2]; human, CSF, oral, 500 mg, CSF concentration, 500 mg bid capsule, fed, nonelderly, day 11, estimated, mean × 0.53): 20.5 ng/mL
CSF trough lower than peak levels ([2]; repeated bid dosing ≥50 mg): approximately threefold lower
time of highest concentrations in the CSF ([2]; single oral solution, CSF sampling 1, 1.5 and 3 hours): 3 h
SMILES: CCCOc1ccc([C@H]2CNC(=O)N2c2ccc3[nH]cnc3c2)cc1 [PQ912]
QC activity in CSF [1]: inhibited in a dose-related manner; also recorded: decreased in a dose-related manner
